We go through 3 compounds from US20100144773A1 (priority 2007, published 2010).

Like-named read-outs stand apart in the source and are kept apart here.

In the assay the test system is male Wistar rats injected with beta-amyloid peptide 25-35 into NBM. The conditions noted are these: 1 mg/kg once a day for 7 days from day 16 after amyloid injection, retention trial 24 h after acquisition, cut-off 180 s, n=8, control 48 ± 11. Here is the method:
Beta-amyloid was administered bilaterally into NBM of male Wistar rats in dose of 2 μg per each side. […] Control rats received saline intranasally. On day next to the last day of the treatment, passive avoidance performance in rats was tested for two consecutive days. A two-compartment, step-through, passive avoidance apparatus consisting of illuminated (25×40×25 cm) and dark (25×40×25 cm) compartments attached to an electrified grid floor and separated by a guillotine door (8×8 cm) was used. In the acquisition trial, the rat was placed in the illuminated compartment in a position its tail directed to the closed door for 2 min to habituate to the apparatus. The guillotine door was opened and time to enter to dark compartment was recorded. When the rat entered to dark compartment completely (four foots in dark compartment), the guillotine door was closed and the rat was delivered an electrical shock of 0.8 mA for 3 sec through the grid floor. After the shock, the rat was immediately placed in home cage. In the retention trial, conducted 24 h after the acquisition trial, the rat was placed in the illuminated compartment and the retention latency to enter into the dark compartment was recorded until 180 s had elapsed. […] Data are presented as retention latency mean±SD (n=8).

For the compound `C[N+](C)(C)CCO.O=C([O-])CCC(=O)[O-].[Na+]` [Compound of formula (III)], the “Latency (retention latency to enter the dark compartment, mean±SD)” value amounted to 87 ± 19 s (intranasally) and 53 ± 28 s (intraperitoneally).

Regarding `C[N+](C)(C)CCO.O=C([O-])CCC(=O)O` [Compound of formula (I)], the “Latency (retention latency to enter the dark compartment, mean±SD)” value (intranasally) is 103 ± 18 s and the “Latency (retention latency to enter the dark compartment, mean±SD)” value (intraperitoneally) was determined as 55 ± 18 s.

Turning to `C[N+](C)(C)CCO.O=C([O-])CCC(=O)[O-].[K+]` [Compound of formula (IV)], the “Latency (retention latency to enter the dark compartment, mean±SD)” value by setting is: (intranasally) 65 ± 16 s; (intraperitoneally) 49 ± 17 s.
